SMILES strings stand for the structures. Read-outs that look alike come from different tables or passages of the source.

Our source for the IC50 values is patent US20220087996A1, “Histone acetylase p300 inhibitor and use thereof” (HINOVA PHARMACEUTICALS INC., priority 2018, published 2022).

The experiment has as its system CWR22RV1 cells. In words: Inhibition of proliferation of CWR22RV1 cells (CCK-8). In kind it is cell-based, human. Conditions: Homo sapiens, CWR22Rv1, 144 h, 6 days culture. How it is done:
1) CWR22RV1 cells were subcultured in cell culture medium, and the cells in good growth condition were seeded in a 96-well plate, 80 μL for each well, and the cell number in each well was 1500. The plate was incubated overnight in a 37° C., 5% CO2 cell incubator. 2) The drug was prepared as 30 mM stock solution with dimethyl sulfoxide (DMSO). Prior to use, the stock solution was diluted 3 times with DMSO, and then further diluted as 3-fold gradient to obtain 9 concentration gradients. Then, each concentration of compound was diluted 200 times with the culture solution (ensuring that the DMSO concentration in the culture system was 0.1%), and two replicate wells were set for each concentration. 20 μL of diluted compound solution was added to the cell culture well (with final concentrations of 10 μM, 3.3 μM. 1.1 μM . . . ), and the plate was gently shaken to mix. In addition, 3 negative control wells containing only cells and 3 blank control wells containing only culture medium were included (6 wells were each added 20 μL DMSO diluted 200 times with culture medium). 2. Result detection: (1) After culturing for 6 days, 10 μL CCK-8 was added to each well, and the plate was continually cultured in a 37° C., 5% CO2 cell incubator for 2.5 h. (2) The absorbance (OD value) was detected at 450 nm using a multifunctional microplate reader. (3) The data were analyzed by Dose-response-inhibition equation in the software GraphPad Prism6, and the IC50 value was obtained.

Where [1] appears, read: read-out: IC50 against CWR22RV1 cells.
Where [2] appears, read: read-out: IC50 against CWR22RV1 cells (text).

`CNC(=O)Nc1ccc2c(c1)CC[C@@]21OC(=O)N(CC(=O)N2C(C)CCC2c2ccc(F)cc2OC)C1=O` (stereo partly drawn) [Example 337, 1-((1R)-3′-(2-(2-(4-fluoro-2-methoxyphenyl)-5-methylpyrrolidin-1-yl)-2-oxoethyl)-2′,4′-dioxo-2,3-dihydrospiro[indene-1,5′-oxazolidine]-5-yl)-3-methylurea]: the IC50 under setting [1] lay within 500 to 2000 nM.
Turning to `CNC(=O)Nc1ccc2c(c1)CC[C@@]21OC(=O)N(CC(=O)N2CCCC2c2ccc(F)cc2OC)C1=O` (stereo partly drawn) [Example 340, 1-((1R)-3′-(2-(2-(4-fluoro-2-methoxyphenyl)pyrrolidin-1-yl)-2-oxoethyl)-2′,4′-dioxo-2,3-dihydrospiro[indene-1,5′-oxazolidine]-5-yl)-3-methylurea], the half-inhibitory concentration (IC50) under setting [1] is > 2000 nM.
With `CNC(=O)Nc1ccc2c(c1)CC[C@@]21OC(=O)N(CC(=O)N2CCCC2c2ccc(OC)cc2OC)C1=O` (stereo partly drawn) [Example 341, 1-((1R)-3′-(2-(2-(2,4-dimethoxyphenyl)pyrrolidin-1-yl)-2-oxoethyl)-2′,4′-dioxo-2,3-dihydrospiro[indene-1,5′oxazolidin]-5-yl)-3-methylurea], under setting [1], the IC50 is > 2000 nM.
Same read-out and setting: for `CNC(=O)Nc1ccc2c(c1)CC[C@@]21OC(=O)N(CC(=O)N2CCCC2c2cccc[n+]2[O-])C1=O` (stereo partly drawn) [Example 343, 2-(1-(2-((R)-5-(3-methylureido)-2′,4′-dioxo-2,3-dihydrospiro[indene-1,5′-oxazole]-3′-yl)acetyl)pyrrolidin-2-yl)pyridin-1-oxide] the value was > 2000 nM; for `CNC(=O)Nc1ccc2c(c1)CC[C@@]21OC(=O)N(CC(=O)N2CCCC2c2ccc(F)cc2C)C1=O` (stereo partly drawn) [Example 347, 1-((1R)-3′-(2-(2-(4-fluoro-2-methylphenyl)pyrrolidin-1-yl)-2-oxoethyl)-2′,4′-dioxo-2,3-dihydrospiro[indene-1,5′-oxazolidine]-5-yl)-3-methylurea], 500 to 2000 nM.
Consider `CNC(=O)Nc1ccc2c(c1)CC[C@@]21OC(=O)N(CC(=O)N2C(C)CCC2c2ccc(F)cc2)C1=O` (stereo partly drawn) [Example 348, 1-((1R)-3′-(2-(2-(4-fluorophenyl)-5-methylpyrrolidin-1-yl)-2-oxoethyl)-2′,4′-dioxo-2,3-dihydrospiro[indene-1,5′-oxazolidine]-5-yl)-3-methylurea], for which the 50% inhibitory concentration (IC50) by setting is: under setting [1], ≤ 500 nM; under setting [2], ≤ 500 nM.
Regarding `CNC(=O)Nc1ccc2c(c1)CC[C@@]21OC(=O)N(CC(=O)N2C(C)CCC2(c2ccc(OC)cc2)c2ccc(OC)cc2)C1=O` (stereo partly drawn) [Example 349, 1-((1R)-3′-(2-(2,2-bis(4-methoxyphenyl)-5-methylpyrrolidin-1-yl)-2-oxoethyl)-2′,4′-dioxo-2,3-dihydrospiro[indene-1,5′-oxazolidine]-5-yl)-3-methylurea], the IC50 under setting [1] was > 2000 nM.
For the compound `CNC(=O)Nc1ccc2c(c1)CC[C@@]21OC(=O)N(CC(=O)N2C(C)CCC2c2ccc(Cl)cc2C)C1=O` (stereo partly drawn) [Example 351, 1-((1R)-3′-(2-(2-(4-chloro-2-methylphenyl)-5-methylpyrrolidin-1-yl)-2-oxoethyl)-2′,4′-dioxo-2,3-dihydrospiro[indene-1,5′-oxazolidine]-5-yl)-3-methylurea], the IC50 is, setting by setting: under setting [1], ≤ 500 nM; under setting [2], ≤ 500 nM.
As for `CNC(=O)Nc1ccc2c(c1)CC[C@@]21OC(=O)N(CC(=O)N2C(C)CCC2c2ccc(C(F)(F)F)cc2C)C1=O` (stereo partly drawn) [Example 352, 1-methyl-3-((1R)-3′-(2-(2-methyl-5-(2-methyl-4-(trifluoromethyl)phenyl)pyrrolidin-1-yl)-2-oxoethyl)-2′,4′-dioxo-2,3-dihydrospiro[indene-1,5′-oxazolidine]-5-yl)urea], the IC50 under setting [1] is > 2000 nM.
As to `CNC(=O)Nc1ccc2c(c1)CC[C@@]21OC(=O)N(CC(=O)N2C(C)CCC2c2ccc(F)cc2C)C1=O` (stereo partly drawn) [Example 353, 1-((1R)-3′-(2-(2-(4-fluoro-2-methylphenyl)-5-methylpyrrolidin-1-yl)-2-oxoethyl)-2′,4′-dioxo-2,3-dihydrospiro[indene-1,5′-oxazolidine]-5-yl)-3-methylurea], the IC50 runs as follows: under setting [1], ≤ 500 nM; under setting [2], ≤ 500 nM.
With `CNC(=O)Nc1ccc2c(c1)CC[C@@]21OC(=O)N(CC(=O)N2C(C)CCC2c2ccc(F)cc2Br)C1=O` (stereo partly drawn) [Example 354, 1-((1R)-3′-(2-(2-(2-bromo-4-fluorophenyl)-5-methylpyrrolidin-1-yl)-2-oxoethyl)-2′,4′-dioxo-2,3-dihydrospiro[indene-1,5′-oxazolidine]-5-yl)-3-methylurea], the IC50 under setting [1] was 500 to 2000 nM.
Take `CNC(=O)Nc1ccc2c(c1)CCC21OC(=O)N(CC(=O)N2CCCCC23CCN(C(C)=O)CC3)C1=O` (centres unmarked) [Example 355, 1-(3′-(2-(9-acetyl-1,9--1-yl)-2-oxoethyl)-2′,4′-dioxo-2,3-dihydrospiro[indene-1,5′-oxazolidine]-5-yl)-3-methylurea]: under setting [1], the half-inhibitory concentration (IC50) was > 2000 nM.
Same read-out and setting: for `CNC(=O)Nc1ccc2c(c1)CC[C@@]21OC(=O)N(CC(=O)N2C(C)CCC2c2ccc(F)cc2C(F)(F)F)C1=O` (stereo partly drawn) [Example 356, 1-((1R)-3′-(2-(2-(4-fluoro-2-(trifluoromethyl)phenyl)-5-methylpyrrolidin-1-yl)-2-oxoethyl)-2′,4′-dioxo-2,3-dihydrospiro[indene-1,5′-oxazolidine]-5-yl)-3-methylurea] the value was > 2000 nM.
Turning to `CNC(=O)Nc1ccc2c(c1)CC[C@@]21OC(=O)N(CC(=O)N2[C@@H](C)CC[C@H]2C2CCCCC2)C1=O` [Example 357, 1-((R)-3′-(2-((2S,5S)-2-cyclohexyl-5-methylpyrrolidin-1-yl)-2-oxoethyl)-2′,4′-dioxo-2,3-dihydrospiro[indene-1,5′-oxazolidine]-5-yl)-3-methylurea], the IC50 by setting is: under setting [1], ≤ 500 nM; under setting [2], ≤ 500 nM.
On to `CNC(=O)Nc1ccc2c(c1)CC[C@@]21OC(=O)N(CC(=O)N2C(C)CCC2c2ccc(F)c(Cl)c2)C1=O` (stereo partly drawn) [Example 359, 1-((1R)-3′-(2-(2-(3-chloro-4-fluorophenyl)-5-methylpyrrolidin-1-yl)-2-oxoethyl)-2′,4′-dioxo-2,3-dihydrospiro[indene-1,5′-oxazolidine]-5-yl)-3-methylurea], for which the IC50 is, setting by setting: under setting [1], ≤ 500 nM; under setting [2], ≤ 500 nM.
For `CNC(=O)Nc1ccc2c(c1)CCC21OC(=O)N(CC(=O)N2[C@@H](CO)CC[C@H]2c2ccc(F)cc2)C1=O` (stereo partly drawn) [Example 361, 1-(3′-(2-((2S,5R)-2-(4-fluorophenyl)-5-(hydroxymethyl)pyrrolidin-1-yl)-2-oxoethyl)-2′,4′-dioxo-2,3-dihydrospiro[indene-1,5′-oxazolidine]-5-yl)-3-methylurea], the half-maximal inhibitory concentration (IC50) under setting [1] fell in the range of 500 to 2000 nM.
On the same count and under the same terms, for `CNC(=O)Nc1ccc2c(c1)CC[C@@]21OC(=O)N(CC(=O)N2C(c3ccc(F)cc3)CC[C@H]2CO)C1=O` (stereo partly drawn) [Example 363, 1-((1R)-3′-(2-((5S)-2-(4-fluorophenyl)-5-(hydroxymethyl)pyrrolidin-1-yl)-2-oxoethyl)-2′,4′-dioxo-2,3-dihydrospiro[indene-1,5′-oxazolidine]-5-yl)-3-methylurea] the value was > 2000 nM; for `CNC(=O)Nc1ccc2c(c1)CC[C@@]21OC(=O)N(CC(=O)N2C(c3ccc(F)cc3)CCC2(C)C)C1=O` (stereo partly drawn) [Example 365, 1-((1R)-3′-(2-(5-(4-fluorophenyl)-2,2-dimethylpyrrolidin-1-yl)-2-oxoethyl)-2′,4′-dioxo-2,3-dihydrospiro[indene-1,5′-oxazolidine]-5-yl)-3-methylurea], 500 to 2000 nM.
